In patent US8778966B2, “Quinolinone derivatives as PARP and tank inhibitors” (Janssen Pharmaceutica, NV, priority 2007, dated 2014):

What was measured:
[1] = biological target: T1, TANK-2 enzyme (Homo sapiens, UniProt Q9H2K2); experiment: In vitro Scintillation Proximity Assay (SPA) for TANK-2 inhibitory activity; type: biochemical; details: read-out: in vitro SPA assay TANK-2 pIC50 (converted)
T1 construct: made in house
T1 sequence (Q9H2K2 1-1166): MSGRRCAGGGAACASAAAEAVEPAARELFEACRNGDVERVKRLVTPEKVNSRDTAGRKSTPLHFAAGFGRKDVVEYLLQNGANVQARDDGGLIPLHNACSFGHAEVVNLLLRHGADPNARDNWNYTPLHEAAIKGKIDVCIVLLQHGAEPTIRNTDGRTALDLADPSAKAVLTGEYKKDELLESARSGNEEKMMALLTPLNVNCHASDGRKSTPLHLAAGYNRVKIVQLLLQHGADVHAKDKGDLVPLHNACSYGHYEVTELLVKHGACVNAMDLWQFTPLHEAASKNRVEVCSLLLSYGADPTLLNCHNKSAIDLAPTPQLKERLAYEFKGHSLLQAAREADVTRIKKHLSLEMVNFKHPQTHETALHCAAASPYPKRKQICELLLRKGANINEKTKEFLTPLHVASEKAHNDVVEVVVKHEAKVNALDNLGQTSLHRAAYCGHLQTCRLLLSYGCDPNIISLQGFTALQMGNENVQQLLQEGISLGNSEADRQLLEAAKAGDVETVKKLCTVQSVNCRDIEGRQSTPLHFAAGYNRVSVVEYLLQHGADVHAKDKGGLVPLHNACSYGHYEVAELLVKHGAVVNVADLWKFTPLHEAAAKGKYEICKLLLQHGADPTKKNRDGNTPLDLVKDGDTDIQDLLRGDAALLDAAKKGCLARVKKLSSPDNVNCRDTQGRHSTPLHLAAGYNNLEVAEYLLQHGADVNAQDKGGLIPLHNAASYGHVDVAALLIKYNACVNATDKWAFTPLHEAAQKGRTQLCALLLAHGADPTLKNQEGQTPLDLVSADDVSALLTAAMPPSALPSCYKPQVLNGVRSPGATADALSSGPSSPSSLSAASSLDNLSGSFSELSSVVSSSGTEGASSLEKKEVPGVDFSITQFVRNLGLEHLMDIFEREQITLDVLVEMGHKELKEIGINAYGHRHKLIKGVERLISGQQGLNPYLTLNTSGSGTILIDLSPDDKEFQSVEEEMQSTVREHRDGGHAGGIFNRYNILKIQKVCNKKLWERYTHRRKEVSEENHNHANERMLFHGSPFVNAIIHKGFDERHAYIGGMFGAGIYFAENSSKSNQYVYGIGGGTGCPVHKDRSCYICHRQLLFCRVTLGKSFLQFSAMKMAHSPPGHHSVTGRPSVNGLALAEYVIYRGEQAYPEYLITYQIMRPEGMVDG
Method in brief: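 TANK-2 (8 μg/ml final) auto-poly(ADP-ribosyl)ation with [3H]-NAD+/NAD donor was run in Ni flash plates in Tris/HCl pH 7.4 buffer with DTT and MgCl2, 120 min at room temperature, then stopped with excess NAD and scintillation-counted. Blank-corrected cpm was expressed as % of enzyme control, and IC50 was linearly interpolated and reported as pIC50.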

[2] = system: tubulin; experiment: Tubulin polymerization assay; type: biochemical; parameters: key: a compound showing 0 to 50% inhibition at 20 μM is reported as score 1; Score 2 compounds are defined as compound showing more than 50% inhibition at 20 μM and less than 50% inhibition at 5 μM; a compound showing more than 50% inhibition at 5 μM is reported as score 3; details: tested at 20 μM and 5 μM
Description: The tubulin polymerization assay is an adaptation of an assay originally described by Bonne, D. et al. (J. Biol. Chem., 1985, 260:2819-25). The assay kit was purchased from Cytoskeleton, Inc. (catalogue number BK011) and the assay was performed as described by the supplier with the following modifications. The assay was run in a 384-well black Proxiplate (Perkin Elmer) and volumes were adapted accordingly. The reactions were carried out in a final volume of 10 μl. Compounds were added to 25 μl of the reaction mix in 96-well PP plates (Corning) on ice and 10 μl of this mixture was dispensed into duplicates of the 384-well Proxiplates pre-warmed to 37° C. in a Fluoroskan Ascent plate reader (Thermo Scientific). Fluorescence measurements were taken every minute for one hour. The maximum slope of each well was determined (linear regression through 4 consecutive points) and polymerization was calculated as a percentage of polymerization observed in the absence of compound. Compounds were first measured at a concentration of 20 μM and then at 5 μM for those showing more than 50% inhibition at 20 μM as compared to the polymerization observed in the absence of compound. Results are reported in Table F-2 as scores defined as: a compound showing 0 to 50% inhibition at 20 μM is reported as score 1; a compound showing more than 50% inhibition at 5 μM is reported as score 3.

Row | SMILES | IC50 [1] | tubulin polymerisation score [2]
1 | CCc1cc2ccc(C(C)(C#N)Cc3cc(N(C)C)nc(C#N)n3)cc2[nH]c1=O (stereo not shown) [Compound 317] | 100 nM | –
2 | CCc1cc2ccc(C(C)(C#N)Cc3ccc4c(c3)OC(F)(F)O4)cc2[nH]c1=O (stereo not shown) [Compound 346] | 501 nM | –
3 | CCc1cc2ccc([C@](C)(C#N)Cc3cccc(/C=C/S(C)(=O)=O)c3)cc2[nH]c1=O (single isomer, unassigned) [Compound 291] | 126 nM | 2
4 | Cc1cc2ccc(C(C)(C#N)Cc3cccc(OCC4CCOCC4)c3)cc2[nH]c1=O (stereo not shown) [Compound 261] | 2510 nM | –
5 | Cc1cc2ccc(C(C)(C#N)Cc3cccc(C=Cc4ccccc4)c3)cc2[nH]c1=O (stereo not shown) [Compound 179] | 2510 nM | –
6 | CCc1cc2ccc(C(C)(C#N)Cc3cc(N(C)C)nc(OC)n3)cc2[nH]c1=O (stereo not shown) [Compound 354] | 79.4 nM | –
7 | CCc1cc2ccc(C(C)(C#N)CN3CCC(c4ccccc4)CC3)cc2[nH]c1=O (stereo not shown) [Compound 375] | 398 nM | 1 (a compound showing 0 to 50% inhibition at 20 μM is reported as score 1)
8 | Cc1cc2ccc(C(C)(C#N)Cc3cccc(Oc4ccccc4)c3)cc2[nH]c1=O (stereo not shown) [Compound 305] | 1580 nM | –
9 | CCc1cc2ccc(C(C)(C#N)Cc3ccc(F)c(F)c3)cc2[nH]c1=O (stereo not shown) [Compound 281] | 158 nM | –
10 | CCc1cc2ccc(C(C)(C#N)Cc3cc(F)ccc3F)cc2[nH]c1=O (stereo not shown) [Compound 280] | 126 nM | –
11 | Cc1cc2ccc([C@@](C)(C#N)C3CCc4ccccc43)cc2[nH]c1=O (single isomer, unassigned) [Compound 385] | 2000 nM | –
12 | Cc1cc2ccc(C(C)(C#N)Cc3cccc(/C=C/CCO)c3)cc2[nH]c1=O (stereo not shown) [Compound 409] | 1000 nM | –
13 | Cc1nc(-c2ccccc2)sc1CC(C)(C#N)c1ccc2cc(C)c(=O)[nH]c2c1 (stereo not shown) [Compound 235] | 1000 nM | 1 (a compound showing 0 to 50% inhibition at 20 μM is reported as score 1)
14 | CCc1cc2ccc(C(C)(C#N)Cc3cccc(NC)c3)cc2[nH]c1=O (stereo not shown) [Compound 257] | 251 nM | –
15 | CCc1cc2ccc([C@@](C)(C#N)Cc3cccc(C#CCO)c3)cc2[nH]c1=O (single isomer, unassigned) [Compound 295] | 126 nM | 1 (a compound showing 0 to 50% inhibition at 20 μM is reported as score 1)
16 | CCc1cc2ccc(C(C)(C#N)Cc3cccc4[nH]ccc34)cc2[nH]c1=O (stereo not shown) [Compound 379] | 100 nM | 2
17 | CCc1cc2ccc(C(C)(C#N)Cc3cc(C#N)nc(C)n3)cc2[nH]c1=O (stereo not shown) [Compound 319] | 63.1 nM | 2
18 | CCc1cc2ccc(C(C)(C#N)Cc3cc(Cl)nc(C)n3)cc2[nH]c1=O (stereo not shown) [Compound 365] | 79.4 nM | –
19 | CCc1cc2ccc(C(C)(C#N)Cc3cc(Cl)nc(N(C)C)c3)cc2[nH]c1=O (stereo not shown) [Compound 323] | 251 nM | 2
20 | Cc1cc2ccc(C(C)(C#N)C3CCCc4ccccc43)cc2[nH]c1=O (stereo not shown) [Compound 404] | 2000 nM | –
21 | CCc1cc2ccc(C(C)(C#N)Cc3cccc(/C=N/O)c3)cc2[nH]c1=O (stereo not shown) [Compound 299] | 158 nM | –
22 | CCc1cc2ccc(C(C)(C#N)Cc3cc(Br)cc4c3OCC4)cc2[nH]c1=O (stereo not shown) [Compound 378] | 251 nM | –
23 | CCc1cc2ccc(C(C)(C#N)CN3CCN(c4ccc(C#N)cn4)CC3)cc2[nH]c1=O (stereo not shown) [Compound 377] | 50.1 nM | 1 (a compound showing 0 to 50% inhibition at 20 μM is reported as score 1)
24 | CCc1cc2ccc(C(C)(C#N)Cc3cccc(C(=O)OC(C)C)c3)cc2[nH]c1=O (stereo not shown) [Compound 255] | 794 nM | 2

Row | SMILES | IC50 [1] | tubulin polymerisation score [2]
25 | CCc1cc2ccc([C@@](C)(C#N)Cc3cc(OC)nc(C)n3)cc2[nH]c1=O (single isomer, unassigned) [Compound 361] | 50.1 nM | 1 (a compound showing 0 to 50% inhibition at 20 μM is reported as score 1)
26 | CCc1cc2ccc(C(C)(C#N)Cc3nc(C#N)cc(OC)n3)cc2[nH]c1=O (stereo not shown) [Compound 313] | 100 nM | 2
27 | CCc1cc2ccc([C@](C)(C#N)Cc3cccc(C#CCO)c3)cc2[nH]c1=O (single isomer, unassigned) [Compound 296] | 200 nM | 2
28 | CCc1cc2ccc(C(C)(C#N)Cc3cccc(OC)c3F)cc2[nH]c1=O (stereo not shown) [Compound 286] | 200 nM | –
29 | CCc1cc2ccc(C(C)(C#N)Cc3cccc(C(=N)NO)c3)cc2[nH]c1=O (stereo not shown) [Compound 186] | 79.4 nM | –
30 | CCc1cc2ccc(C(C)(C#N)Cc3cc(C#N)nc(OC)c3)cc2[nH]c1=O (stereo not shown) [Compound 314] | 25.1 nM | 1 (a compound showing 0 to 50% inhibition at 20 μM is reported as score 1)
31 | CCc1cc2ccc(C(C)(C#N)CNCc3ccc(C#N)cc3)cc2[nH]c1=O (stereo not shown) [Compound 302] | 100 nM | –
32 | CCc1cc2ccc(C(C)(C#N)Cc3cccc(NC)n3)cc2[nH]c1=O (stereo not shown) [Compound 339] | 100 nM | 2
33 | CCc1cc2ccc(C(C)(C#N)Cc3cc(N(C)C)nc(N(C)C)n3)cc2[nH]c1=O (stereo not shown) [Compound 320] | 200 nM | –
34 | CCc1cc2ccc(C(C)(C#N)COCc3ccccc3)cc2[nH]c1=O (stereo not shown) [Compound 197] | 63.1 nM | –
35 | Cc1cc2ccc(C(C)(C#N)C3CCc4ccccc43)cc2[nH]c1=O (stereo not shown) [Compound 392] | 1260 nM | –
36 | CCc1cc2ccc(C(C)(C#N)Cc3cc(Br)cc(N(C)C)c3)cc2[nH]c1=O (stereo not shown) [Compound 260] | 251 nM | 2
37 | CCc1cc2ccc(C(C)(C#N)Cc3cc(OC)nc(OC)c3)cc2[nH]c1=O (stereo not shown) [Compound 350] | 126 nM | 2
38 | Cc1cc2ccc([C@](C)(C#N)C3CCc4ccccc43)cc2[nH]c1=O (single isomer, unassigned) [Compound 386] | 1260 nM | 2
39 | CCc1cc2ccc([C@](C)(C#N)CCOc3ccc(C#N)cc3)cc2[nH]c1=O (single isomer, unassigned) [Compound 275] | 63.1 nM | –
40 | CCc1cc2ccc(C(C)(C#N)Cc3cc(C#N)nc(N(C)C)c3)cc2[nH]c1=O (stereo not shown) [Compound 325] | 63.1 nM | –
41 | Cc1cc2ccc(C(C)(C#N)Cc3cccc(I)c3)cc2[nH]c1=O (stereo not shown) [Compound 256] | 1260 nM | –
42 | CCc1cc2ccc(C(C)(C#N)Cc3cc(N(C)C)nc(C)n3)cc2[nH]c1=O (stereo not shown) [Compound 322] | 251 nM | –
43 | CCc1cc2ccc(C(C)(C#N)Cc3c4ccccc4nn3C)cc2[nH]c1=O (stereo not shown) [Compound 347] | 200 nM | –
44 | CCc1cc2ccc(C(C)(C#N)Cc3cc(C(F)(F)F)ccc3F)cc2[nH]c1=O (stereo not shown) [Compound 283] | 398 nM | –
45 | CCc1cc2ccc(C(C)(C#N)Cc3cc(C(C)C)ccc3OC)cc2[nH]c1=O (stereo not shown) [Compound 288] | 1000 nM | –
46 | Cc1cc2ccc([C@](C)(C#N)[C@H]3CCc4ccccc43)cc2[nH]c1=O [Compound 387] | 2510 nM | –
47 | CCc1cc2ccc(C(C)(C#N)Cc3cc(Cl)nc(OC)c3)cc2[nH]c1=O (stereo not shown) [Compound 351] | 158 nM | –
